{"source": "patent US20240174624A1", "about": "“CHIRAL N-(1,3,4-OXADIAZOLE-2-YL)PHENYL CARBOXYLIC ACID AMIDES AND THEIR USE AS HERBICIDES” (Bayer Aktiengesellschaft, priority 2021, published 2024)", "key": {"[1]": {"test_system": "ALOMY", "assay": "Pre-emergence herbicidal action", "format": "in vivo, Alopecurus myosuroides", "conditions": "80 g/ha, scored after 3 weeks", "from_the_text": "(§1) Seeds of monocotyledonous and dicotyledonous weed plants and crop plants are laid out in sandy loam soil in wood-fibre pots and covered with soil. The compounds of the invention, formulated in the form of wettable powders (WP) or as emulsion concentrates (EC), are then applied to the surface of the covering soil in the form of an aqueous suspension or emulsion at a water application rate equivalent to 600 to 800 l/ha, with addition of 0.2% wetting agent. After the treatment, the pots are placed in a greenhouse and kept under good growth conditions for the trial plants. The damage to the test plants is scored visually after a test period of 3 weeks by comparison with untreated controls (herbicidal activity in percent (%): 100% activity=the plants have died, 0% activity=like control plants). […] The tables below illustrate, in an illustrative manner, the post-emergence herbicidal action of the compounds of the invention, the herbicidal activity being stated in percent. In the experiments that follow, the herbicidal action of the compounds of the invention and that of the corresponding known racemic compounds closest from WO2012126932 and WO2018202535 were compared under the above-specified conditions by the pre-emergence and post-emergence method. The example numbers given in the tables relate to the compounds disclosed in the respective documents."}, "[2]": {"test_system": "AMARE", "assay": "Pre-emergence herbicidal action", "format": "in vivo, Amaranthus retroflexus", "conditions": "scored after 3 weeks", "from_the_text": "as §1, with “percent.” for “percent. In the experiments that follow, the herbicidal action of the compounds of the invention and that of the corresponding known racemic compounds closest from WO2012126932 and WO2018202535 were compared under the above-specified conditions by the pre-emergence and post-emergence method. The example numbers given in the tables relate to the compounds disclosed in the respective documents.”"}, "[3]": {"test_system": "AVEFA", "assay": "Pre-emergence herbicidal action", "format": "in vivo, Avena fatua", "conditions": "80 g/ha, scored after 3 weeks", "from_the_text": "as §1"}, "[4]": {"test_system": "DIGSA", "assay": "Pre-emergence herbicidal action", "format": "in vivo, Digitaria sanguinalis", "conditions": "scored after 3 weeks", "from_the_text": "as §1, with “percent.” for “percent. In the experiments that follow, the herbicidal action of the compounds of the invention and that of the corresponding known racemic compounds closest from WO2012126932 and WO2018202535 were compared under the above-specified conditions by the pre-emergence and post-emergence method. The example numbers given in the tables relate to the compounds disclosed in the respective documents.”"}, "[5]": {"test_system": "ECHCG", "assay": "Pre-emergence herbicidal action", "format": "in vivo, Echinochloa crus-galli", "conditions": "scored after 3 weeks", "from_the_text": "as §1, with “percent.” for “percent. In the experiments that follow, the herbicidal action of the compounds of the invention and that of the corresponding known racemic compounds closest from WO2012126932 and WO2018202535 were compared under the above-specified conditions by the pre-emergence and post-emergence method. The example numbers given in the tables relate to the compounds disclosed in the respective documents.”"}, "[6]": {"test_system": "MATIN", "assay": "Pre-emergence herbicidal action", "format": "in vivo, Matricaria inodora", "conditions": "scored after 3 weeks", "from_the_text": "as §1"}, "[7]": {"test_system": "SETVI", "assay": "Pre-emergence herbicidal action", "format": "in vivo, Setaria viridis", "conditions": "scored after 3 weeks", "from_the_text": "as §1"}, "[8]": {"test_system": "VERPE", "assay": "Pre-emergence herbicidal action", "format": "in vivo, Veronica persica", "conditions": "scored after 3 weeks", "from_the_text": "as §1"}, "[9]": {"test_system": "VIOTR", "assay": "Pre-emergence herbicidal action", "format": "in vivo, Viola tricolor", "conditions": "scored after 3 weeks", "from_the_text": "as §1, with “percent.” for “percent. In the experiments that follow, the herbicidal action of the compounds of the invention and that of the corresponding known racemic compounds closest from WO2012126932 and WO2018202535 were compared under the above-specified conditions by the pre-emergence and post-emergence method. The example numbers given in the tables relate to the compounds disclosed in the respective documents.”"}, "[10]": {"test_system": "ZEAMX", "assay": "Pre-emergence damage to crop plants", "format": "in vivo, Zea mays", "conditions": "80 g a.i./ha, comparative experiment", "from_the_text": "as §1"}, "[11]": {"test_system": "BRSNW", "assay": "Pre-emergence damage to crop plants", "format": "in vivo, Brassica napus", "conditions": "20 g a.i./ha, comparative experiment", "from_the_text": "as §1"}, "[12]": {"test_system": "AMARE", "assay": "Post-emergence herbicidal action", "format": "in vivo, Amaranthus retroflexus", "conditions": "assessed after about 3 weeks", "description": "(§2) Seeds of monocotyledonous and dicotyledonous weed and crop plants are laid out in sandy loam soil in wood-fibre pots, covered with soil and cultivated in a greenhouse under good growth conditions. 2 to 3 weeks after sowing, the test plants are treated at the one-leaf stage. The compounds of the invention, formulated in the form of wettable powders (WP) or as emulsion concentrates (EC), are then sprayed onto the green parts of the plants in the form of an aqueous suspension or emulsion at a water application rate equating to 600 to 800 l/ha, with addition of 0.2% wetting agent. After the test plants have been left to stand in the greenhouse under optimal growth conditions for about 3 weeks, the action of the preparations is assessed visually in comparison to untreated controls (herbicidal action in percent (%): 100% activity=the plants have died, 0% activity=like control plants). […] The tables below illustrate, in an illustrative manner, the post-emergence herbicidal action of the compounds of the invention, the herbicidal activity being stated in percent."}, "[13]": {"test_system": "DIGSA", "assay": "Post-emergence herbicidal action", "format": "in vivo, Digitaria sanguinalis", "conditions": "assessed after about 3 weeks", "description": "as §2, with “percent. In the experiments that follow, the herbicidal action of the compounds of the invention and that of the corresponding known racemic compounds closest from WO2012126932 and WO2018202535 were compared under the above-specified conditions by the pre-emergence and post-emergence method. The example numbers given in the tables relate to the compounds disclosed in the respective documents.” for “percent.”"}, "[14]": {"test_system": "ECHCG", "assay": "Post-emergence herbicidal action", "format": "in vivo, Echinochloa crus-galli", "description": "as §2, with “percent. In the experiments that follow, the herbicidal action of the compounds of the invention and that of the corresponding known racemic compounds closest from WO2012126932 and WO2018202535 were compared under the above-specified conditions by the pre-emergence and post-emergence method. The example numbers given in the tables relate to the compounds disclosed in the respective documents.” for “percent.”"}, "[15]": {"test_system": "PHBPU", "assay": "Post-emergence herbicidal action", "format": "in vivo, Pharbitis purpurea", "conditions": "20 g/ha, assessed after about 3 weeks", "description": "as §2"}, "[16]": {"test_system": "SETVI", "assay": "Post-emergence herbicidal action", "format": "in vivo, Setaria viridis", "conditions": "for Post-emergence action against SETVI: assessed after about 3 weeks", "description": "as §2, with “percent. In the experiments that follow, the herbicidal action of the compounds of the invention and that of the corresponding known racemic compounds closest from WO2012126932 and WO2018202535 were compared under the above-specified conditions by the pre-emergence and post-emergence method. The example numbers given in the tables relate to the compounds disclosed in the respective documents.” for “percent.”"}, "[17]": {"test_system": "VERPE", "assay": "Post-emergence herbicidal action", "format": "in vivo, Veronica persica", "conditions": "assessed after about 3 weeks", "description": "as §2, with “percent. In the experiments that follow, the herbicidal action of the compounds of the invention and that of the corresponding known racemic compounds closest from WO2012126932 and WO2018202535 were compared under the above-specified conditions by the pre-emergence and post-emergence method. The example numbers given in the tables relate to the compounds disclosed in the respective documents.” for “percent.”"}, "[18]": {"test_system": "VIOTR", "assay": "Post-emergence herbicidal action", "format": "in vivo, Viola tricolor", "conditions": "for Herbicidal action against VIOTR: comparative experiment; for Post-emergence action against VIOTR: assessed after about 3 weeks", "description": "as §2, with “percent. In the experiments that follow, the herbicidal action of the compounds of the invention and that of the corresponding known racemic compounds closest from WO2012126932 and WO2018202535 were compared under the above-specified conditions by the pre-emergence and post-emergence method. The example numbers given in the tables relate to the compounds disclosed in the respective documents.” for “percent.”"}, "[19]": {"test_system": "TRZAS", "assay": "Post-emergence damage to crop plants", "format": "in vivo, Triticum aestiva", "conditions": "5 g a.i./ha, comparative experiment", "description": "as §2, with “percent. In the experiments that follow, the herbicidal action of the compounds of the invention and that of the corresponding known racemic compounds closest from WO2012126932 and WO2018202535 were compared under the above-specified conditions by the pre-emergence and post-emergence method. The example numbers given in the tables relate to the compounds disclosed in the respective documents.” for “percent.”"}, "[20]": {"test_system": "GLXMA", "assay": "Post-emergence damage to crop plants", "format": "in vivo, Glycine max", "conditions": "5 g a.i./ha, comparative experiment", "description": "as §2, with “percent. In the experiments that follow, the herbicidal action of the compounds of the invention and that of the corresponding known racemic compounds closest from WO2012126932 and WO2018202535 were compared under the above-specified conditions by the pre-emergence and post-emergence method. […]” for “percent.”"}}, "data": [{"smiles": "Cc1nnc(NC(=O)c2ccc(C(F)F)c([S+](C)[O-])c2Cl)o1", "note": "(stereo in doubt) [Example I-6, 2-chloro-N-(5-methyl-1,3,4-oxadiazol-2-yl)-3-[(S)-methylsulfinyl]-4-(difluoromethyl)benzamide]", "values": [{"measurement": "Pre-emergence action against ALOMY", "setting": "[1]", "result": 100, "unit": "%"}, {"measurement": "Pre-emergence action against AMARE", "setting": "[2]; 20 g/ha", "result": 90, "unit": "%"}, {"measurement": "Pre-emergence action against AMARE", "setting": "[2]; 80 g/ha", "result": 100, "unit": "%"}, {"measurement": "Pre-emergence action against AVEFA", "setting": "[3]", "result": 100, "unit": "%"}, {"measurement": "Pre-emergence action against DIGSA", "setting": "[4]; 20 g/ha", "result": 100, "unit": "%"}, {"measurement": "Pre-emergence action against DIGSA", "setting": "[4]; 80 g/ha", "result": 100, "unit": "%"}, {"measurement": "Pre-emergence action against ECHCG", "setting": "[5]; 20 g/ha", "result": 90, "unit": "%"}, {"measurement": "Pre-emergence action against ECHCG", "setting": "[5]; 80 g/ha", "result": 100, "unit": "%"}, {"measurement": "Pre-emergence action against MATIN", "setting": "[6]; 20 g/ha", "result": 90, "unit": "%"}, {"measurement": "Pre-emergence action against MATIN", "setting": "[6]; 80 g/ha", "result": 90, "unit": "%"}, {"measurement": "Pre-emergence action against SETVI", "setting": "[7]; 20 g/ha", "result": 90, "unit": "%"}, {"measurement": "Pre-emergence action against SETVI", "setting": "[7]; 80 g/ha", "result": 100, "unit": "%"}, {"measurement": "Pre-emergence action against VERPE", "setting": "[8]; 20 g/ha", "result": 90, "unit": "%"}, {"measurement": "Pre-emergence action against VERPE", "setting": "[8]; 80 g/ha", "result": 100, "unit": "%"}, {"measurement": "Pre-emergence action against VIOTR", "setting": "[9]; 20 g/ha", "result": 100, "unit": "%"}, {"measurement": "Pre-emergence action against VIOTR", "setting": "[9]; 80 g/ha", "result": 100, "unit": "%"}, {"measurement": "Damage to ZEAMX", "setting": "[10]", "result": 20, "unit": "%"}, {"measurement": "Damage to BRSNW", "setting": "[11]", "result": 40, "unit": "%"}, {"measurement": "Post-emergence action against AMARE", "setting": "[12]; 5 g/ha", "result": 90, "unit": "%"}, {"measurement": "Post-emergence action against AMARE", "setting": "[12]; 20 g/ha", "result": 100, "unit": "%"}, {"measurement": "Post-emergence action against DIGSA", "setting": "[13]; 5 g/ha", "result": 90, "unit": "%"}, {"measurement": "Post-emergence action against DIGSA", "setting": "[13]; 20 g/ha", "result": 90, "unit": "%"}, {"measurement": "Herbicidal action against ECHCG", "setting": "[14]; 20 g a.i./ha, comparative experiment", "result": 100, "unit": "%"}, {"measurement": "Post-emergence action against ECHCG", "setting": "[14]; 20 g/ha, assessed after about 3 weeks", "result": 100, "unit": "%"}, {"measurement": "Post-emergence action against PHBPU", "setting": "[15]", "result": 90, "unit": "%"}, {"measurement": "Herbicidal action against SETVI", "setting": "[16]; 5 g a.i./ha, comparative experiment", "result": 100, "unit": "%"}, {"measurement": "Post-emergence action against SETVI", "setting": "[16]; 5 g/ha", "result": 100, "unit": "%"}, {"measurement": "Post-emergence action against SETVI", "setting": "[16]; 20 g/ha", "result": 100, "unit": "%"}, {"measurement": "Post-emergence action against VERPE", "setting": "[17]; 5 g/ha", "result": 90, "unit": "%"}, {"measurement": "Post-emergence action against VERPE", "setting": "[17]; 20 g/ha", "result": 90, "unit": "%"}, {"measurement": "Herbicidal action against VIOTR", "setting": "[18]; 5 g a.i./ha", "result": 80, "unit": "%"}, {"measurement": "Post-emergence action against VIOTR", "setting": "[18]; 5 g/ha", "result": 80, "unit": "%"}, {"measurement": "Herbicidal action against VIOTR", "setting": "[18]; 20 g a.i./ha", "result": 100, "unit": "%"}, {"measurement": "Post-emergence action against VIOTR", "setting": "[18]; 20 g/ha", "result": 100, "unit": "%"}, {"measurement": "Damage to TRZAS", "setting": "[19]", "result": 20, "unit": "%"}, {"measurement": "Damage to GLXMA", "setting": "[20]", "result": 40, "unit": "%"}]}]}
